Experimental data from patent publication US20120010178A1, “METHODS AND COMPOUNDS FOR TREATMENT OF NEURODEGENERATIVE DISORDERS” (PRESIDENT AND FELLOWS OF HARVARD COLLEGE, priority 2008, published 2012).
“Also recorded” adds a separate entry of the source. Read-outs that look alike come from different tables or passages of the source. Blank lines part the entries; values can stand above or below the compound they belong to.

Experiments:
SMN [1] = assay: SMN immunofluorescence quantification (cytoplasm, nucleus, GEMs) in fibroblasts from SMA patients; format: cell-based, human; conditions: for levels of cytoplasmic and nuclear SMN (in words): SMA patient fibroblasts, substance alone
Procedure: Specifically, fibroblasts from patients suffering from SMA were treated with Ionomycin (a channel modulator), Ouabain (a cardiac glycoside and channel modulator), PDGF, SAHA (an HDAC inhibitor), Lactacystin (a proteasome inhibitor) or WIN 55,212-2 (a cannabinoid receptor […] and GPCR ligand) for 72 hours. The cells were fixed with methanol/acetone and stained with Pharmingen BD antibodies, followed by 488 AlexaFluor staining. Images were obtained with 60× lens on Zeiss LSM510 META on an inverted confocal microscope.
For example, fibroblasts from patients suffering from SMA were treated with Ouabain, Digoxin or Lanatoside at a concentration of 0, 2.5 nM, 5 nM, 10 nM, 20 nM, 40 nM, 80 nM, […] for 72 hours. The cells were fixed with methanol/acetone and stained with Pharmingen BD antibodies, followed by 488 AlexaFluor staining. Images were obtained with 60× lens on Zeiss LSM510 META on an inverted confocal microscope.
An assay was established for high-content evaluation of SMN protein level in different cellular compartments after treatment with small molecules. SMN protein was visualized by immunofluorescent staining and multiple fields from each plate well were scanned by an automated confocal Opera microscope. […] For each well, the algorithm generated quantitative parameters representing number of cells, as well as SMN fluorescent intensity per cell in cytoplasm, nucleus, number and intensity of GEMs (FIG. 15). […] During the assay transfer to the robotic platform fixation with the ice cold methanol was technically limited, therefore to preserve the maximum possible window we chose to perform the screen on parental fibroblast with PFA fixation.
For fibroblast assays, human fibroblasts lines GM09677 (derived from patient with SMA type 1 disease) and GM03814 (derived from unaffected parental SMA carriers) were used (Coriell Cell Repositories). […] For secondary assays cells from GM09677 line were used.
Fibroblasts were grown in MEM media (Invitrogen) supplemented with 5% Fetal Bovine Serum (FBS, Invitrogen), 2 mM glutamine and 1% penicillin-streptomycin (100 U/ml) in a presence of 5% CO2 at 37° C. For drug treatments, cells were plated and treated 24 h later with 10 μM MG132 (Biomol International), […] Calpeptin (Biomol International), 10 mM ammonium chloride, 1 μM myristoylated PKI, or vehicle for the designated times.
(§1) Compounds were stored at appropriate temperature and dissolved accordingly to the manufacturers (Tocris, Enzo, EMD and Sigma-Aldrich) in DMSO (Sigma-Aldrich), unless stated otherwise (Monensin Na in EtOH, DMPQ in water). Growth factors and PDGF neutralizing antibodies (R&D Systems) were reconstituted with buffers recommended by the supplier. For generation of the dose curves, 1×10^3 fibroblasts were plated on to 96-well Greiner Senso plates (VWR) and treated with compounds on the second day then fixed and stained at the indicated time points. For GSK inhibitors and performing p-GSK3b(Ser9) detection, two days after plating growth media containing 5% FBS was replaced to the media with FBS reduced down to 0.5%, to starve cells for 72 hours. Addition of the GSK inhibitors was done in 5% FBS enriched media.

SMN [2] = assay: High-content fibroblast screen for compounds that modulate SMN level; conditions: human fibroblasts, 2-3 days with compound;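 also: Anti-SMN immunostaining with confocal imaging of nuclear and cytoplasmic SMN and gem counts, tested at 0.1, 1 and 10 uM, fold change relative to negative control wells on each plate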
Procedure: Human fibroblasts were incubated for 2-3 days with compounds from annotated collections. Cells were fixed and stained with an anti-SMN antibody. Confocal imaging was used to quantify SMN fluorescence in nucleus and cytoplasm and count Gems. Data were collected and subsequently analyzed by clustering compounds by suspected mechanism of action and chemical structure.
Following optimization of assay conditions on day 0, total of 500 human fibroblasts (GM09677 line) per well were seeded in 384-well plates, on day 3 they were treated with compounds (robot CyBio) from the annotated collections and on the 5 day plates were fixed and stained (robot MAPD) with an anti-SMN antibody and secondary antibody conjugated with 448 fluorophore (FIG. 19a). Compounds from the libraries were added in duplicate at three final concentrations of 10, 1 and 0.1 uM.
SMN detection was done on the automated confocal microscope Opera PerkinElmer with separate fluorescent exposures to 488 nM laser for and a UV light source to detect nuclei stained with Hoechst 33258 with a 20× objective.
After scanning on the Opera, an XML file extraction workflow, designed with Inforsense KDE, was used to assemble the data from multiple replicate plates of each HCS experiment including the quantitative parameters described above and chemical identities, chemical concentrations and indications of which wells were used for positive and negative controls. […] The fold-induction of SMN intensity values for each well treated with a library chemical were normalized to the SMN average intensity in multiple negative control wells per plate.
Since it is not known which form of SMN increase is the most essential, hits that scored in a duplicate at least in two different parameters greater than 1.3 fold at any of the three concentrations were selected (FIG. 19d). […] Further, 220 compounds were screened in the absence of anti-SMN primary antibody with the same assay conditions, to filter out the fluorescent compounds.

[3] = biological target: T1, GSK3b (Ser-9 phosphorylation) (Homo sapiens, UniProt P49841); assay: p-GSK(Ser9) phosphorylation in patient fibroblasts (western blot / immunofluorescence); format: cell-based
T1 construct: endogenous in cells; host or cells: SMA patient fibroblasts (GM09677), starved in 0.5% FBS before treatment
Procedure: as §1, with “media. As previously described, starvation increases levels of constitutively activate GSK3b kinase, allowing to achieve a more dramatic inhibitory effect when GSK inhibitors are added together with growth factors that are also known to inhibit GSK by Ser-9 phosphorylation. […] For all compounds and growth factors control wells received solvent in amount equivalent to the highest concentration of the compound in a dose curve. For PDGF inhibitory studies, cells were pre-treated with kinase inhibitors for 2 hours and PDGF was added with a fresh kinase inhibitor solution and incubated for an additional 3 days.” for “media.”

SMN [4] = assay: Inhibition of PDGF-stimulated SMN increase in fibroblasts by kinase/receptor inhibitors; format: cell-based, human; conditions: SMA patient fibroblasts, PDGF plus inhibitor or neutralizing antibody
Procedure: Fibroblasts from patients suffering from SMA were treated with PDGF at a concentration of 0, 0.3 ng/ml, 0.63 ng/ml, 1.25 ng/ml, 2.5 ng/ml, 5 ng/ml, 10 ng/ml or 20 ng/ml, in the absence or in the presence of 25 uM DMPQ or 25 uM AG-1296 respectively for 72 hours. The levels of both cytoplasmic and nuclear SMN were detected and quantified using the method described in Example 2.
(§2) Fibroblasts from patients suffering from SMA were either control treated or treated with PDGF at a concentration of 0, 0.63 ng/ml, 1.25 ng/ml, 2.5 ng/ml, 5 ng/ml, 10 ng/ml or 20 ng/ml, in the absence or in the presence of 50 uM LY294002 or 2 uM P1-103 respectively for 72 hours. The levels of both cytoplasmic and nuclear SMN were detected and quantified using the method described in Example 2.
as §2, with “of” for “of 50 uM LY294002 or”, “uM Papamycin” for “uM P1-103 respectively”, “Example x.” for “Example 2.”
A range of concentrations were tested in order not to miss the effects. SMN level were evaluated by Opera Evoteck in each cellular compartment and to assess the cell numbers that are summarized in the Table 3.
as §1, with “media. As previously described, starvation increases levels of constitutively activate GSK3b kinase, allowing to achieve a more dramatic inhibitory effect when GSK inhibitors are added together with growth factors that are also known to inhibit GSK by Ser-9 phosphorylation. […] For all compounds and growth factors control wells received solvent in amount equivalent to the highest concentration of the compound in a dose curve. For PDGF inhibitory studies, cells were pre-treated with kinase inhibitors for 2 hours and PDGF was added with a fresh kinase inhibitor solution and incubated for an additional 3 days.” for “media.”

PC12 cells = conditions: cited from earlier work
SMN [5] = assay: SMN levels in mouse (ES-cell derived) motor neurons; format: cell-based; conditions: for SMN levels in motor neurons (in words): mouse motor neurons
Procedure: Mouse HB9-GFP derived SMN deficient motor neuron cells were incubated for 2 days with compounds from libraries and collections.
Motor neurons were produced from mouse ES-cells expressing cherry fluorescent protein (CFP) under the control of the motor neuron-selective Hb9 promoter, as previously described (Wichterle et al., 2002).
GFP expressing motor neurons were derived from mouse ES cells as described below. After growing for approximately 1 week, motor neurons were treated with allsterpaullone. Two days after treatment with allsterpaullone, cells were fixed and stained with SMN antibody or GFP antibody.
mES cells were differentiated into motor neurons according to methods adapted from Wichterle et. al., Cell (2002), 110:385-397. Briefly, mES cells were grown to 70-80% confluence in 10-cm plates (Falcon) in ES cell medium. To form embryoid bodies, cells were washed once with PBS to eliminate mES medium and then incubated with 1 ml of 0.25% trypsin (GIBCO) for 5-10 min at 21-25° C. (RT). Cells were then resuspended in 10 ml of DM1 medium (DMEM-F12, GIBCO), 10% knockout serum (GIBCO), penicillin, streptomycin, glutamine (GIBCO) and 2-mercaptoethanol (GIBCO), counted and plated at a concentration of 200,000 cells per ml in Petri dishes (Falcon). Two days later, embryoid bodies were collected and resuspended into new Petri dishes containing DM1 medium supplemented with RAc (100 nM; stock 1 mM in DMSO, Sigma) and HhAg (100 nM). […] treatment was repeated with the same concentration of RAc (100 nM) and high concentration of HhAg (1 μM). On day 6, the embryoid bodies were collected in a 15-ml Falcon tube, and incubated in Earle's balanced salt solution with 20 units of Papain and 1,000 units of DNase I (Worthington Biochemical) for 10 min at 37° C. The mixture was then triturated with a 10-ml pipette and centrifugated for 5 min at 800 rpm. The resulting cell pellet was washed with PBS and resuspended in F12 medium (F12 medium, GIBCO) with 2% fetal bovine serum (GIBCO), B-27 supplement (GIBCO), (GDNF and BDNF, 20 ng ml^−1, R&D Systems). The cells were counted and plated on poly-ornithine coated 96-well plates (VWR).

motor neurons = assay: Motor neuron survival (mouse motor neurons, compound treatment); format: cell-based
Procedure: Mouse motor neurons were treated with […] inhibitors. The levels of both cytoplasmic and nuclear SMN were detected and quantified using the method described in Example 2. The results shown in FIG. 14b indicate that […] inhibitors increase motor neuron survival.
Another way of assessing motor neuron survival is by withdrawing the neurotrophic factors from the media. Briefly, motor neurons are grown in media containing neurotrophic factors. The neurotrophic factors are then withdrawn from the growth media, e.g., cells transferred to media having no neurotrophic factors or neurotrophic factor containing media exchanged with neurotrophic factors lacking media. The compound of interest is added and motor neurons are counted on a daily basis.

T1 sequence (P49841 whole entry): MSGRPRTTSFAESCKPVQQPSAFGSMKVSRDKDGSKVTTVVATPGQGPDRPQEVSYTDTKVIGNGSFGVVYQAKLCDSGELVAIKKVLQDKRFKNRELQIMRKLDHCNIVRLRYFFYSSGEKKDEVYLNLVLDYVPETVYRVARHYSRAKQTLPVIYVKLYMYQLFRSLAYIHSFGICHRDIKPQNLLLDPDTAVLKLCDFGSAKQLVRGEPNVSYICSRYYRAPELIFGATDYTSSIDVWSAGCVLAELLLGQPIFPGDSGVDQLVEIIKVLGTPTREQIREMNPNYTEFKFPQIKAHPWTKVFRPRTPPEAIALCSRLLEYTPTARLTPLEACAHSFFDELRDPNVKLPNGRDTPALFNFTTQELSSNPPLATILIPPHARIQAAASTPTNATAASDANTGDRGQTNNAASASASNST

- p-GSK-Ser9 phosphorylation (in words) ([3]; patient fibroblasts): promoted phosphorylation of p-GSK-Ser9
Compound: COc1ccc(CNC(=O)Nc2ncc([N+](=O)[O-])s2)cc1 [AR-A014418]
- SMN level fold increase (SMN [1]; at a concentration of 23 μM): 2 fold
- SMN level in fibroblast screen (increase or decrease) (SMN [2]): SMN is increase

Compound: COc1cc(OC)c2cc(-c3ccncc3)cnc2c1.Cl.Cl [DMPQ]
- levels of cytoplasmic and nuclear SMN (in words) (SMN [1]): decreases
- levels of cytoplasmic and nuclear SMN (in words) (SMN [1]; listed as DMPQ dihydrochloride): decrease
- SMN level in fibroblast screen (increase or decrease) (SMN [2]): decreased SMN
- PDGF-stimulated SMN increase in presence of inhibitor (in words) (SMN [4]): sufficient to prevent PDGF effect on SMN; also recorded: abrogated; also recorded: blocked; also recorded: abolished

Compound: Cn1cc(C2=C(c3ccc(Cl)cc3Cl)C(=O)NC2=O)c2ccccc21 [SB216763]
- protection from EGTA induced death (PC12 cells): able to protect PC12 cells from EGTA induced death

Compound: CC(/C=C/C(=O)NO)=C\[C@@H](C)C(=O)c1ccc(N(C)C)cc1 [Trichostatin]
- effect on GEMs (number / intensity, in words) (SMN [1]; fibroblasts): increased GEM counts at the lower concentrations
- nuclear SMN at the higher dosage (in words) (SMN [1]; fibroblasts, higher dosage): increased nuclear SMN predominantly
- SMN levels in motor neurons (in words) (SMN [5]): increase SMN
- SMN levels in motor neurons (in words) (SMN [5]; listed as Trichastatin): increase SMN levels

Compound: COc1cc2c(cc1OC)[C@@H]1C(=O)c3ccc4c(c3O[C@@H]1CO2)C=CC(C)(C)O4 [deguelin]
- spot intensity in ES-derived motor neurons (SMN [5]): decrease
- SMN levels in motor neurons (in words) (SMN [5]): decrease

Compound: O=C1Cc2c([nH]c3ccc(Br)cc23)-c2ccccc2N1 [kenpaullone, 9-bromopaullone]
- motor neuron survival (in words) (motor neurons): promote motor neuron survival
- SMN levels in motor neurons (in words) (SMN [5]): without increasing SMN protein levels

Compound: C=C(C)[C@H]1Cc2c(ccc3c2O[C@@H]2COc4cc(OC)c(OC)cc4[C@@H]2C3=O)O1 [roteonone]
- spot intensity in ES-derived motor neurons (SMN [5]): decrease
- SMN levels in motor neurons (in words) (SMN [5]): decrease

- p-GSK-Ser9 phosphorylation (in words) [3]: promoted phosphorylation of p-GSK-Ser9
Compound: CHIR98014
- SMN level fold increase (SMN [1]): over 2.5 fold
